Assay results taken from US12662478B2, “ATF6 modulators and uses thereof” (Altos Labs, Inc., priority 2019, dated 2026).
Read-outs that look alike come from different tables or passages of the source.

Legend:
[1] = molecular target: T1, ATF6 (Homo sapiens, UniProt P18850); assay: ERSE ATF6-luciferase assay in presence of Tg-induced ER stress (U2-OS ATF6 TRE-luciferase reporter cells); type: cell-based; settings: in presence of ER stress (thapsigargin), Tg only = 100%; for ATF6 activity @ 1 μM [%] / activity at 1 µM: 1 μM test compound; for ATF6 activity @ 1 μM [%] / ATF6 activity @ 10 μM [%]: 8 hr; for activity at 10 µM / activity at 1 µM: U2OS, 8 h; for activity at 10 µM / ATF6 activity @ 10 μM [%]: 10 μM test compound
T1 construct: endogenous in cells; host or cells: U2-OS (ATCC HTB-96) stably transduced with the Cignal Lenti ATF6 luc reporter (Qiagen #CLS-6031L)
T1 sequence (P18850 1-670): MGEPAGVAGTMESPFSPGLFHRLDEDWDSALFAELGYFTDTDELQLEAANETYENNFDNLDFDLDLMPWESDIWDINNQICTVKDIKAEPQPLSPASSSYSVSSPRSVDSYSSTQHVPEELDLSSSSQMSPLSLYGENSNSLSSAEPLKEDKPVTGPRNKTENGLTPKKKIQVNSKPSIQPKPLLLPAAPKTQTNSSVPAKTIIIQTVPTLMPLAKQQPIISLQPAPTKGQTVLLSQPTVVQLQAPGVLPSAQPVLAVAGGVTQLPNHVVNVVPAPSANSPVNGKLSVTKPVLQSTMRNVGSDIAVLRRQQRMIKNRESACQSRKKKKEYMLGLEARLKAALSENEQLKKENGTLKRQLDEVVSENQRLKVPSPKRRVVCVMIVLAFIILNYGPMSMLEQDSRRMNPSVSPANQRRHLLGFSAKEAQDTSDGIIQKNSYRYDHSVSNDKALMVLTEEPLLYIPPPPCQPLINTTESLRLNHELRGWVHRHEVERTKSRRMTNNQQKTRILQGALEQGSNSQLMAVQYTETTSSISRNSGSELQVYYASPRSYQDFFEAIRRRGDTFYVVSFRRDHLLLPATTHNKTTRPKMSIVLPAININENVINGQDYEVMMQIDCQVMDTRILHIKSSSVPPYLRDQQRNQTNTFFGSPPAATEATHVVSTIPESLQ
Procedure: (§1) To understand how exemplary compounds of the invention modulate the activity of ATF6 in absence or presence of endoplasmic reticulum (ER) stress, a Human bone osteosarcoma (U2-OS)-based TRE-luciferase reporter stable cell line was generated to determine the modulation of transcription of ATF6 target genes.
(§2) U2-OS cells were obtained from the American Type Culture Collection (ATCC HTB-96, ATCC Manassas, VA) and were cultured with growing medium containing Dulbecco's Modified Eagle's Medium (DMEM) (Cat. No.: SH30023.02, HyClone) supplemented with fetal bovine serum (FBS) 10% (Cat. No.: 16000044, Gibco) and 1% penicillin-streptomycin antibiotic cocktail (Cat. No.: SV30010, Hyclone).
(§3) Cignal Lenti ATF6 luc reporter (Qiagen #CLS-6031L) was used to produce a stable cell line in U2-OS cells (U2-OS ATF6 TRE-luciferase reporter). The lenti ATF6 reporter is a preparation of replication incompetent, VSV-g pseudotyped lentivirus particles expressing the firefly luciferase gene under the control of a minimal (m)CMV promoter and tandem repeats of the ATF6 transcriptional response element (TRE). The number of response elements as well as the intervening sequence between response elements has been experimentally optimized to maximize the signal to noise ratio.
(§4) Exemplary compounds of the invention and reference compounds were prepared from powder as 10 mM stock solutions in dimethyl sulfoxide (DMSO; Cat. No. #D2650, Sigma Aldrich) and stored at −80° C. in presence of N2 neutral atmosphere.
(§5) For the primary screening, 40,000 U2-OS ATF6 TRE-luciferase reporter cells were plated in poly-D-lysine (Cat. No.: P2636, Sigma) pre-coated white 96-well plates (Thermo Scientific Nunc #136101) with 100 μL of growing medium. Cells were incubated in humidified chambers for 24 hr.
For testing exemplary compounds in presence of ER-stress, cells were pre-treated for 30 min with 50 μL growing medium containing either vehicle (DMSO), 1 or 10 μM test compound. After this pre-incubation, 50 μL of a solution containing 0.2 μM of the ER stress-inducer thapsigargin (Tg) was added to the appropriate wells. The Tg solution also contains vehicle or test compounds at 1 or 10 μM as indicated. The final concentration of DMSO in each well was kept at 0.3%. Plates were incubated for 8 hr in humidified chambers.
After the 8 hr incubation, plates were cooled down to room temperature for 10 min prior to the luciferase assays. Luciferase reactions were performed using Luciferase Assay System (Cat. No.: E4550, Promega). Briefly, each well was washed with 100 μl of PBS 1× and, then, 20 μl of lysis reagent was added into each well. Plates were shaken for 10 min and, then, 50 μl of Luciferase Assay Reagent was added to each well. Luminescence was determined by integration of 1 s with a gain of 110 in a Synergy 4 Microplate reader. All measurements were carried out in triplicate.
The average activity determined from the wells containing vehicle only (DMSO, 0% of ATF6 activity) was used as blank and subtracted from the rest of measurements. The average activity determined from the wells containing Tg only was used as 100% of ATF6 activity. The percentage of modulation of exemplary compounds was calculated by normalizing values to potential maximal activation with Tg.
ATF6 activities of exemplary compounds at 1 and 10 μM in presence Tg-induced ER stress tested in the U2-OS ATF6 TRE-luciferase reporter cells were determined and are shown in Table 2-2 and Table 3-2.

[2] = molecular target: T1, ATF6; assay: ERSE ATF6-luciferase assay in absence of ER stress (U2-OS ATF6 TRE-luciferase reporter cells); type: cell-based; settings: normalized to maximal activation with Tg; for activation at 1 µM / activation at 10 µM: U2OS, 8 h; for activation at 1 µM / ATF6 activity @ 1 μM-No Tg [%]: 1 μM test compound; for activation at 10 µM / ATF6 activity @ 10 μM - No Tg [%]: 10 μM test compound; for ATF6 activity @ 1 μM-No Tg [%] / ATF6 activity @ 10 μM - No Tg [%]: 8 hr, Table 3-3
Procedure: as §1, §2, §3, §4, §5
For testing exemplary compounds in absence of ER-stress, cells were treated for 8 hr with 100 μL growing medium containing either vehicle (DMSO), 1 or 10 μM test compound or 0.1 μM Tg. The final concentration of DMSO in each well was kept at 0.3%. Plates were incubated in humidified chambers.
After 8 hr of incubation, plates were cooled down to room temperature for 10 min prior to luciferase assays. Luciferase reactions were performed as above. Luminescence was read by integration of 1 s with a gain of 110 in a Synergy 4 Microplate reader. All measurements were carried out in triplicate.
The average activity determined from the wells containing vehicle only (DMSO, 0% of ATF6 activity) was used as blank and subtracted from the rest of measurements. The percentage of modulation of exemplary compound was calculated by normalizing values to potential maximal activation with Tg.
ATF6 activities of exemplary compounds at 1 and 10 μM in absence of Tg-induced ER stress in the U2-OS ATF6 TRE-luciferase reporter cells were determined and are shown in Table 3-2, and Table 3-3.

[3] = in absence of ER stress (no Tg), Table 3-3, read-out: ATF6 activity @ 1 μM-No Tg [%]
[4] = in absence of ER stress (no Tg), Table 3-3, read-out: ATF6 activity @ 10 μM - No Tg [%]
[5] = in absence of ER stress (no Tg)

SMILES	ATF6 activity @ 1 μM [%] ([1]; Table 2-3)	activity at 10 µM ([1]; Table 2-3) [%]	activation at 1 µM [2, 3] [%]	activation at 10 µM [2, 4] [%]	activity at 1 µM ([1]; Table 2-3) [%]	ATF6 activity @ 10 μM [%] ([1]; Table 2-3)	ATF6 activity @ 1 μM-No Tg [%] [2, 5]	ATF6 activity @ 10 μM - No Tg [%] [2, 5]	further results
CC(C1CCCC1)n1cc(NC(=O)c2cc(-c3ccco3)on2)cn1 (single isomer, unassigned) [Compound 3-17, N-(1-(1-cyclopentylethyl)-1H-pyrazol-4-yl)-5-(furan-2-yl)isoxazole-3-carboxamide]	++ (++ refers to 125% < % activity < 150% at 1 or 10 μM test compound)	125 to 150	0 to 25	0 to 25					
CC(C1CCCC1)n1cc(NC(=O)c2cc(-c3ccco3)on2)cn1 (stereo not shown) [Compound 3-5, N-(1-(1-cyclopentylethyl)-1H-pyrazol-4-yl)-5-(furan-2-yl)isoxazole-3-carboxamide]		> 150	0 to 25	0 to 25	125 to 150				
O=C(Nc1cnn(C2CCOC2)c1)c1cc(-c2cccs2)on1 (stereo not shown) [Compound 3-19, N-(1-(tetrahydrofuran-3-yl)-1H-pyrazol-4-yl)-5-(thiophen-2-yl)isoxazole-3-carboxamide]		> 150	0 to 25	25 to 50	> 150				
O=C(Nc1cnn(Cc2c(Cl)cncc2Cl)c1)c1cc(-c2ccco2)on1 [Compound 3-6, N-(1-((3,5-dichloropyridin-4-yl)methyl)-1H-pyrazol-4-yl)-5-(furan-2-yl)isoxazole-3-carboxamide]		125 to 150	0 to 25	0 to 25	100 to 125				
CC(C1CCOC1)n1cc(NC(=O)c2cc(-c3ccco3)on2)cn1 (stereo not shown) [Compound 3-27, 5-(furan-2-yl)-N-(1-(1-(tetrahydrofuran-3-yl)ethyl)-1H-pyrazol-4-yl)isoxazole-3-carboxamide]	+ (+ refers to 100% < % activity < 125% at 1 or 10 μM)					+++ (+++ refers to >150% at 1 or 10 μM test compound)	+ (+ refers to 0% < % activity < 25% at 1 or 10 μM test compound)	++ (++ refers to 25% < % activity < 50% at 1 or 10 μM test compound)	
O=C(Nc1cnn(C2CCOC2)c1)c1cc(-c2cccs2)on1 (single isomer, unassigned) [Compound 3-23, N-(1-(tetrahydrofuran-3-yl)-1H-pyrazol-4-yl)-5-(thiophen-2-yl)isoxazole-3-carboxamide]	+++ (+++ refers to >150% at 1 or 10 μM test compound)					+++ (+++ refers to >150% at 1 or 10 μM test compound)	++ (++ refers to 25% < % activity < 50% at 1 or 10 μM test compound)	+++ (+++ refers to % activity >50 % at 1 or 10 μM test compound)	
O=C(Nc1cnn(C2CCOC2)c1)c1cc(-c2cccs2)on1 (single isomer, unassigned) [Compound 3-22, N-(1-(tetrahydrofuran-3-yl)-1H-pyrazol-4-yl)-5-(thiophen-2-yl)isoxazole-3-carboxamide]	++ (++ refers to 125% < % activity < 150% at 1 or 10 μM test compound)	> 150					+ (+ refers to 0% < % activity < 25% at 1 or 10 μM test compound)	++ (++ refers to 25% < % activity < 50% at 1 or 10 μM test compound)	
CC(C1CCCC1)n1cc(NC(=O)c2cc(-c3ccco3)on2)cn1 (single isomer, unassigned) [Compound 3-18, N-(1-(1-cyclopentylethyl)-1H-pyrazol-4-yl)-5-(furan-2-yl)isoxazole-3-carboxamide]	+ (+ refers to 100% < % activity < 125% at 1 or 10 μM)					++ (++ refers to 125% < % activity < 150% at 1 or 10 μM test compound)	+ (+ refers to 0% < % activity < 25% at 1 or 10 μM test compound)	+ (+ refers to 0% < % activity < 25% at 1 or 10 μM test compound)	
CC(c1c(Cl)cccc1Cl)n1cc(C#Cc2nnc(-c3ccccn3)s2)cn1 (stereo not shown) [Compound 2-20, 2-((1-(1-(2,6-dichlorophenyl)ethyl)-1H-pyrazol-4-yl)ethynyl)-5-(pyridin-2-yl)-1,3,4-thiadiazole]									activity at 1 µM ([1]; Table 2-2): 75 to 100%; activity at 10 µM ([1]; Table 2-2): 100 to 125%; activation at 1 µM ([2]; in absence of ER stress, Table 3-2, read-out: ATF6 activity @ 1 μM [%]): 0 to 25%; activation at 10 µM ([2]; in absence of ER stress, Table 3-2, read-out: ATF6 activity @ 10 μM [%]): 0 to 25%
O=C(Nc1cnn(C2CCOC2)c1)c1cc(-c2ccccn2)on1 (single isomer, unassigned) [Compound 3-21, 5-(pyridin-2-yl)-N-(1-(tetrahydrofuran-3-yl)-1H-pyrazol-4-yl)isoxazole-3-carboxamide]	+++ (+++ refers to >150% at 1 or 10 μM test compound)					+++ (+++ refers to >150% at 1 or 10 μM test compound)	+ (+ refers to 0% < % activity < 25% at 1 or 10 μM test compound)	++ (++ refers to 25% < % activity < 50% at 1 or 10 μM test compound)	
